The source of these data is PMC8308784, “Novel Purine Chemotypes with Activity against Plasmodium falciparum and Trypanosoma cruzi” (Pharmaceuticals, 2021).

Like-named read-outs stand apart in the source and are kept apart here.

The IC50 is the concentration that inhibits the measured activity by half.

The test system of series [1] is T. cruzi Tulahuen strain expressing β-galactosidase. Description: T. cruzi primary screening at three fixed concentrations. In kind it is cell-based. The note with it: for activity at 100 µM / activity at 1 µM / activity at 10 µM: Trypanosoma cruzi, TULAHUEN; for activity at 100 µM: read-out: Primary screening, growth inhibition values at 100 µM; for activity at 1 µM: read-out: Primary screening, growth inhibition values at 1 µM; for activity at 10 µM: read-out: Primary screening, growth inhibition values at 10 µM. The method, then: (§1) T. cruzi parasites from the Tulahuen strain (discrete typing unit (DTU) VI) expressing β-galactosidase were maintained in culture by the infection of LLC-MK2 cells in DMEM supplemented with 2% FBS and 1% penicillin–streptomycin–glutamine (PSG), as described in [52]. When free-swimming trypomastigotes were released to the culture medium, they were centrifuged for 7 min at 2500 rpm and allowed to swim out of the pellet. Trypomastigotes were used to maintain the parasite cycle, or for the performance of the antiparasitic assays.
[…] Conditions were tested in triplicate for every concentration. Z-values varied between 0.81 and 0.92 in the different plates analyzed. Selected compounds (34.6% potential hit rate) were further analyzed via standard growth inhibition assays. The Z-values of dose–response assays correlated with those previously reported. For both assays, Vero cells and trypomastigotes from the Tulahuen T. cruzi strain expressing β-galactosidase were harvested, centrifuged, and resuspended in DMEM without phenol red supplemented with 1% PSG, 2% FBS, 1 mM sodium pyruvate, and 25 mM HEPES. Vero cells and trypomastigotes were counted, diluted at a concentration of 1 × 10^6 cells/mL each, and mixed 1:1 (v/v). Then, 100 μL of that mixture was added per well to the plates already containing the compounds. Each well contained 50,000 host cells and 50,000 parasites, i.e., multiplicity of infection (MOI) = 1. BNZ was used as control of maximal drug growth inhibition in each round, whereas each plate contained its own negative control (maximum parasite growth; Vero cells plus parasites without drugs) and positive control (minimum parasite growth; trypomastigote forms alone marking an enzymatic zero time or baseline galactosidase activity). After four days at 37 °C, 50 µL of a PBS solution containing 0.25% NP40 and 500 µM chlorophenol red-β-D-galactopyranoside (CPRG) substrate were added per well [32]. Plates were incubated at 37 °C for 4 h, and their absorbance read out at 590 nm using an Epoch Gene5 spectrophotometer.
(§2) Absorbance values derived from the anti-T. cruzi assays and fluorescence values from the anti-P. falciparum and cell toxicity assays were normalized to the controls. In the primary screening at three fixed doses, the compounds’ inhibitory activity was expressed as a percentage of the negative control (100% parasitic growth). In dose–response assays, the compounds’ IC50 and TC50 values were determined with GraphPad Prism 7 software (version 7.00, 2016), using a non-linear regression analysis model defined by the following equation: Y=100 ÷(1+10^((LogIC50−X)×HillSlope))

For series [2], the system named is P. falciparum 3D7. Briefly: P. falciparum dose-response growth inhibition assay (FACS, SYTO 11). The note with it: P. falciparum 3D7, 48 h, mean (SD). It counts as cell-based. The method, then: (§3) Apicomplexan parasite cultures were maintained at 3% hematocrit under an atmosphere of 37 °C in 93% N2, 5% CO2, and 2% O2, following standard methods. Synchronized cultures were obtained via 5% sorbitol lysis.
(§4) P. falciparum growth was primarily analyzed under 3 different concentrations (100, 10, and 1 mM) of the 81 compounds. Conditions were tested in triplicate for every concentration, and the test was repeated when the standard deviation was above 10% for any concentration. Z-values varied between 0.83 and 0.98 in the different plates analyzed. Selected compounds (12.3% potential hit rate) were further analyzed via standard growth inhibition assays, carried out as previously described in [54]. Briefly, parasitemia was adjusted to 1–1.3%, with >90% rings after sorbitol synchronization. Two hundred microliters of parasite culture were plated in 96-well microplates and incubated for 48 h at 37 °C in the presence of decreasing concentrations of the tested compounds, in triplicate. Parasitemia was determined by fluorescence-assisted cell sorting (FACS). Non-infected RBCs and samples containing parasitized RBCs (including controls with DMSO as carrier solvent) were diluted in PBS to a final concentration of ~1–10 × 10^6 cells/mL. The cell suspension was stained with SYTO 11 (0.5 mM stock in DMSO, Thermo Fisher Scientific, Waltham, MA, USA), to a final concentration of 0.5 μM. Samples were analyzed in a Becton Dickinson FACSCalibur. Sample excitation was carried out using a 488-nm, air-cooled argon-ion laser at a power of 15 mW, using forward and side scatter to gate the RBC population, and SYTO 11 green fluorescence (530 nm, FITC filter) was collected in a logarithmic scale. The single-cell population was selected on a forward–side scattergram, and the green fluorescence from this population was analyzed. Parasitemia was expressed as the number of parasitized cells per 100 erythrocytes.
as §2

The test system of series [3] is P. falciparum 3D7. Description: P. falciparum primary screening at three fixed concentrations. In kind it is cell-based. Particulars: average of at least three experiments; for activity at 1 µM / activity at 10 µM / activity at 100 µM: Plasmodium falciparum, read-out: Primary screening, parasite growth relative to the negative control; for activity at 1 µM: 3D7, compound at 1 µM; for activity at 10 µM: 3D7, compound at 10 µM; for activity at 100 µM: 3D7, compound at 100 µM. The protocol:
as §3
as §4, with “P. falciparum growth was primarily analyzed under 3 different concentrations (100, 10, and 1 mM) of the 81 compounds.” left out
as §2

The test system of a further series is Vero cells. Briefly: Vero cell toxicity assay (alamarBlue). In kind it is cell-based, green monkey. Particulars: 4 days; minimum value of the 95% CI, except BNZ (mean (SD)). The protocol: Human erythrocytes were purified from B+ Rh+ blood samples and maintained at 4 °C in incomplete RPMI medium. Vero (green monkey kidney epithelial cells), LLC-MK2 (Rhesus monkey kidney epithelial cells), and HepG2 (human liver epithelial cells) cultures were cultivated in DMEM supplemented with 1% penicillin–streptomycin (PS) and 10% heat-inactivated fetal bovine serum (FBS) at 37 °C, 5% CO2, and >95% humidity, as described in [31]. HepG2 cells were also supplemented with 10% non-essential amino acids. Vero and MK2 cells were passaged twice per week at 1:12 ratios, while HepG2 cells were passaged at a 1:8 ratio.
Vero and HepG2 cells were detached, centrifuged, and resuspended in DMEM without phenol red. Cell viability was checked upon cell counting with trypan blue staining. Then, Vero and HepG2 cells were diluted at a concentration of 5 × 10^5 and 3.2 × 10^5 cells per mL, respectively, before adding 100 µL per well to the 96-well plate. Each run contained its own negative (untreated cells) and positive (medium alone) controls. Plates were incubated at 37 °C for 4 days in the case of Vero, or 2 in the case of HepG2 cells. Assay readout was made by adding 50 µL per well of a PBS solution containing 10% alamarBlue reagent (Thermo Fisher Scientific); then, plates were incubated for another 6 h at 37 °C, before recording the fluorescence intensity with a Tecan Infinite M Nano+ reader (excitation: 530 nm, emission: 590 nm).
as §2

The subject of series [4] is T. cruzi Tulahuen strain expressing β-galactosidase. Description: anti-T. cruzi dose-response growth inhibition assay (Vero cells plus trypomastigotes, CPRG readout). In kind it is cell-based. The note with it: anti-T. cruzi IC50 of non-progressed compounds, read-out: Dose-response assay IC50. The protocol:
as §1
T. cruzi growth was primarily analyzed under three different concentrations ([…]) of the 81 compounds. Conditions were tested in triplicate for every concentration. Z-values varied between 0.81 and 0.92 in the different plates analyzed. Selected compounds (34.6% potential hit rate) were further analyzed via standard growth inhibition assays. The Z-values of dose–response assays correlated with those previously reported. For both assays, Vero cells and trypomastigotes from the Tulahuen T. cruzi strain expressing β-galactosidase were harvested, centrifuged, and resuspended in DMEM without phenol red supplemented with 1% PSG, 2% FBS, 1 mM sodium pyruvate, and 25 mM HEPES. Vero cells and trypomastigotes were counted, diluted at a concentration of 1 × 10^6 cells/mL each, and mixed 1:1 (v/v). Then, 100 μL of that mixture was added per well to the plates already containing the compounds. Each well contained 50,000 host cells and 50,000 parasites, i.e., multiplicity of infection (MOI) = 1. BNZ was used as control of maximal drug growth inhibition in each round, whereas each plate contained its own negative control (maximum parasite growth; Vero cells plus parasites without drugs) and positive control (minimum parasite growth; trypomastigote forms alone marking an enzymatic zero time or baseline galactosidase activity). After four days at 37 °C, 50 µL of a PBS solution containing 0.25% NP40 and 500 µM chlorophenol red-β-D-galactopyranoside (CPRG) substrate were added per well [32]. Plates were incubated at 37 °C for 4 h, and their absorbance read out at 590 nm using an Epoch Gene5 spectrophotometer.
as §2

The mark [5] stands for this setting: compound at 1 µM, average of at least three independent experiments.
Setting [6] is: compound at 10 µM, average of at least three independent experiments.
Setting [7] is: Plasmodium falciparum, 3D7, 48 h.
[8] abbreviates: Trypanosoma cruzi, TULAHUEN, Vero.

On to `c1ccc(-c2nc3c(OCc4cn(Cc5cscn5)nn4)ncnc3n2N2CCCCC2)cc1` [Compound 76], for which the activity at 100 µM in series [1] came out at 49.8%; in the series on P. falciparum 3D7 [3] it was 15.2%. The activity at 1 µM was 89.4% in series [1] (setting [5]) and 95.7% in the series with P. falciparum 3D7 [3]. Further, the activity at 10 µM in series [1] (setting [6]) turned out to be 88.2%; in the series with P. falciparum 3D7 [3], 84.3%. The IC50 in the series with P. falciparum 3D7 [2] was 18.3 µM; with P. falciparum 3D7 [2] (setting [7]), ~20 µM. Moreover, the “Vero Cells TC50” value in the series with Vero cells is recorded as >500 µM.
For the molecule `CC(C)(C)Nc1ncnc2c1nc(-c1ccccc1)n2C(C)(C)C` [Compound 1B], the activity at 100 µM in series [1] worked out at 12.7%; in the series on P. falciparum 3D7 [3], 69.5%. Moreover, the results for the activity at 1 µM (in series [1] (setting [5]); with P. falciparum 3D7 [3]) were 96.3% and 112%, respectively. Moreover, the activity at 10 µM in series [1] (setting [6]) was 93%; with P. falciparum 3D7 [3], 108%. In addition, in series [4] (setting [8]), the IC50 is 68.4 µM.
With `COc1ccccc1-n1cc(COc2ncnc3c2nc(-c2ccccc2)n3N(C)C)nn1` [Compound 33], the activity at 100 µM in series [1] was determined as 21.5%; with P. falciparum 3D7 [3], 22.5%. The activity at 1 µM is 91.5% in series [1] (setting [5]) and 96.3% with P. falciparum 3D7 [3]. Also, the activity at 10 µM in series [1] (setting [6]) turned out to be 63.3%; in the series on P. falciparum 3D7 [3] it was 85.4%. Besides, the IC50 was 19.2 µM in the series on P. falciparum 3D7 [2] and ~20 µM in the series with P. falciparum 3D7 [2] (setting [7]). For the same molecule, the “Vero Cells TC50” value with Vero cells was >300 µM.
With `CN1CCN(n2c(-c3ccccc3)nc3c(OCc4cn(Cc5cscn5)nn4)ncnc32)CC1` [Compound 84], the “Primary screening, growth inhibition values at 1 µM” value in series [1] (setting [5]) was 93.615. Moreover, the “Primary screening, growth inhibition values at 10 µM” value in series [1] (setting [6]) was determined as 93.94. The same molecule registered an IC50 with P. falciparum 3D7 [2] of 28 µM. In addition, the “Primary screening, parasite growth relative to the negative control” value in the series with P. falciparum 3D7 [3] (compound at 1 µM) is given as 96.34%; with P. falciparum 3D7 [3] (compound at 10 µM), 88.61%; with P. falciparum 3D7 [3] (compound at 100 µM), 13.94%. Besides, in the series on Vero cells, the “Vero Cells TC50” value is >70 µM.
In the case of `c1ccc(COc2ncnc3c2ncn3Cc2ccccc2)cc1` [MJ11], the activity at 100 µM in series [1] turned out to be 6.06%; with P. falciparum 3D7 [3], 31.8%. The activity at 1 µM in series [1] (setting [5]) came out at 91.4%; in the series with P. falciparum 3D7 [3], 103%. Moreover, the activity at 10 µM was 85.5% in series [1] (setting [6]) and 102% in the series with P. falciparum 3D7 [3]. For the same molecule, in series [4] (setting [8]), the concentration for half-maximal inhibition (IC50) was 17.7 µM.
With `c1ccc(COc2ncnc3c2nc(-c2ccccc2)n3N2CCOCC2)cc1` [Compound 21], the IC50 in series [4] worked out at 34.8 µM. Also, the “Primary screening, parasite growth relative to the negative control” value with P. falciparum 3D7 [3] (compound at 1 µM) turned out to be 96.68%; in the series on P. falciparum 3D7 [3] (compound at 10 µM), 87.35%; with P. falciparum 3D7 [3] (compound at 100 µM), 81.22%.
